Test results from patent publication US20060235076A1, “Medicinal composition for treating infection with drug-resistant staphylococcus aureus” (priority 2003, published 2006).

What was measured:
[1] = tested on: MRSA COL and MRSA Strain No. 5; assay: Potentiating effect of various gallates for antibacterial activity of oxacillin (MIC by broth microdilution method and FIC); format: cell-based, Staphylococcus aureus; conditions: for effect of the combination use with oxacillin by FIC values: COL Strain and Strain No. 5; for FIC value: combination with oxacillin
Experimental: According to the broth microdilution method defined by Japan Society of Chemotherapy, MIC was determined. CAMHA was prepared by adding 50 mg/l of Ca-ion, 25 mg/l of Mg-ion, and 2% of NaCl to MHB (Mueller-Hinton Broth), and it was used as a medium for use in the measurement of sensitivity. In 96-well microplates 100 μl of the medium for use in the measurement of sensitivity containing drugs was dispensed. The bacterial liquid was incubated at 37° C. overnight, diluted with saline and added to the plate so that the final concentration of the bacteria was 5×10^5 CFU/well. […] FIC (fractional inhibitory concentration) was calculated from the result and the potency of the effect of the combination use was evaluated.

MRSA = assay: Potentiating effect of galloyl quinic acid derivatives for the antibacterial activity of oxacillin (agar plate dilution method, MIC); format: cell-based, Staphylococcus aureus
Method in brief: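 MIC by agar plate dilution (Japan Society of Chemotherapy) on Mueller-Hinton II agar with 50 mg/l Ca, 25 mg/l Mg and 2% NaCl, inoculum diluted to 10^6 CFU/ml; tara-derived galloyl quinic acids tested combined with oxacillin.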

## O=C(O[C@@H]1Cc2c(O)cc(O)cc2O[C@@H]1c1ccc(O)c(O)c1)c1cc(O)c(O)c(O)c1 [Epicatechin gallate, epicatechin gallate]
[1]
  effect of the combination use with oxacillin by FIC values: more potent effects of the combination use
[1]; MRSA COL
  FIC value: 0.127
[1]; MRSA Strain No. 5
  FIC value: 0.188

## O=C(O[C@@H]1Cc2c(O)cc(O)cc2O[C@H]1c1cc(O)c(O)c(O)c1)c1cc(O)c(O)c(O)c1 [Gallocatechin gallate, gallocatechin gallate]
[1]
  effect of the combination use with oxacillin by FIC values: more potent effects of the combination use
[1]; MRSA COL
  FIC value: 0.281
[1]; MRSA Strain No. 5
  FIC value: 0.188

## O=C(OC1CC(O)(C(=O)O)CC(O)C1OC(=O)c1cc(O)c(O)c(O)c1)c1cc(O)c(O)c(O)c1 (stereo not drawn) [compound 4]
MRSA; ATCC 6538, with 12.5 μg/ml of compound
  Oxacillin MIC: <0.5 µg/mL
MRSA; ATCC 6538, with 25 μg/ml of compound
  Oxacillin MIC: <0.5 µg/mL
MRSA; ATCC 6538, with 50 μg/ml of compound
  Oxacillin MIC: <0.5 µg/mL
MRSA; MRSA 1, with 12.5 μg/ml of compound
  Oxacillin MIC: >256 µg/mL
MRSA; MRSA 1, with 25 μg/ml of compound
  Oxacillin MIC: >256 µg/mL
MRSA; MRSA 1, with 50 μg/ml of compound
  Oxacillin MIC: >256 µg/mL
MRSA; MRSA 2, with 12.5 μg/ml of compound
  Oxacillin MIC: >256 µg/mL
MRSA; MRSA 2, with 25 μg/ml of compound
  Oxacillin MIC: 256 µg/mL
MRSA; MRSA 2, with 50 μg/ml of compound
  Oxacillin MIC: 256 µg/mL
MRSA; MRSA 3, with 12.5 μg/ml of compound
  Oxacillin MIC: 256 µg/mL
MRSA; MRSA 3, with 25 μg/ml of compound
  Oxacillin MIC: 256 µg/mL
MRSA; MRSA 3, with 50 μg/ml of compound
  Oxacillin MIC: 128 µg/mL
MRSA; MRSA 4, with 12.5 μg/ml of compound
  Oxacillin MIC: >256 µg/mL
MRSA; MRSA 4, with 25 μg/ml of compound
  Oxacillin MIC: >256 µg/mL
MRSA; MRSA 4, with 50 μg/ml of compound
  Oxacillin MIC: >256 µg/mL
MRSA; MRSA 5, with 12.5 μg/ml of compound
  Oxacillin MIC: >256 µg/mL
MRSA; MRSA 5, with 25 μg/ml of compound
  Oxacillin MIC: ≅256 μg/ml
MRSA; MRSA 5, with 50 μg/ml of compound
  Oxacillin MIC: >256 µg/mL
MRSA; MRSA 6, with 12.5 μg/ml of compound
  Oxacillin MIC: 256 µg/mL
MRSA; MRSA 6, with 25 μg/ml of compound
  Oxacillin MIC: 256 µg/mL
MRSA; MRSA 6, with 50 μg/ml of compound
  Oxacillin MIC: 128 µg/mL
MRSA; MRSA 7, with 12.5 μg/ml of compound
  Oxacillin MIC: >256 µg/mL
MRSA; MRSA 7, with 25 μg/ml of compound
  Oxacillin MIC: >256 µg/mL
MRSA; MRSA 7, with 50 μg/ml of compound
  Oxacillin MIC: >256 µg/mL
MRSA; MRSA 8, with 12.5 μg/ml of compound
  Oxacillin MIC: 256 µg/mL
MRSA; MRSA 8, with 25 μg/ml of compound
  Oxacillin MIC: 128 µg/mL
MRSA; MRSA 8, with 50 μg/ml of compound
  Oxacillin MIC: 128 µg/mL
MRSA; MRSA 9, with 12.5 μg/ml of compound
  Oxacillin MIC: >256 µg/mL
MRSA; MRSA 9, with 25 μg/ml of compound
  Oxacillin MIC: >256 µg/mL
MRSA; MRSA 9, with 50 μg/ml of compound
  Oxacillin MIC: >256 µg/mL
MRSA; MRSA 10, with 12.5 μg/ml of compound
  Oxacillin MIC: 128 µg/mL
MRSA; MRSA 10, with 25 μg/ml of compound
  Oxacillin MIC: 128 µg/mL
MRSA; MRSA 10, with 50 μg/ml of compound
  Oxacillin MIC: 128 µg/mL
MRSA; MRSA 12, with 12.5 μg/ml of compound
  Oxacillin MIC: >256 µg/mL
MRSA; MRSA 12, with 25 μg/ml of compound
  Oxacillin MIC: >256 µg/mL
MRSA; MRSA 12, with 50 μg/ml of compound
  Oxacillin MIC: >256 µg/mL
MRSA; MRSA 16, with 12.5 μg/ml of compound
  Oxacillin MIC: >256 µg/mL
MRSA; MRSA 16, with 25 μg/ml of compound
  Oxacillin MIC: >256 µg/mL
MRSA; MRSA 16, with 50 μg/ml of compound
  Oxacillin MIC: >256 µg/mL
MRSA; MRSA 17, with 12.5 μg/ml of compound
  Oxacillin MIC: 256 µg/mL
MRSA; MRSA 17, with 25 μg/ml of compound
  Oxacillin MIC: 256 µg/mL
MRSA; MRSA 17, with 50 μg/ml of compound
  Oxacillin MIC: 256 µg/mL
MRSA; MRSA 18, with 12.5 μg/ml of compound
  Oxacillin MIC: >256 µg/mL
MRSA; MRSA 18, with 25 μg/ml of compound
  Oxacillin MIC: >256 µg/mL
MRSA; MRSA 18, with 50 μg/ml of compound
  Oxacillin MIC: >256 µg/mL
MRSA; MRSA 20, with 12.5 μg/ml of compound
  Oxacillin MIC: 32 µg/mL
MRSA; MRSA 20, with 25 μg/ml of compound
  Oxacillin MIC: 16 µg/mL
MRSA; MRSA 20, with 50 μg/ml of compound
  Oxacillin MIC: 16 µg/mL
MRSA; MRSA 21, with 12.5 μg/ml of compound
  Oxacillin MIC: 128 µg/mL
MRSA; MRSA 21, with 25 μg/ml of compound
  Oxacillin MIC: 128 µg/mL
MRSA; MRSA 21, with 50 μg/ml of compound
  Oxacillin MIC: 64 µg/mL
MRSA; MRSA 22, with 12.5 μg/ml of compound
  Oxacillin MIC: 64 µg/mL
MRSA; MRSA 22, with 25 μg/ml of compound
  Oxacillin MIC: 64 µg/mL
MRSA; MRSA 22, with 50 μg/ml of compound
  Oxacillin MIC: 64 µg/mL
MRSA; MRSA COL, with 12.5 μg/ml of compound
  Oxacillin MIC: >256 µg/mL
MRSA; MRSA COL, with 25 μg/ml of compound
  Oxacillin MIC: >256 µg/mL
MRSA; MRSA COL, with 50 μg/ml of compound
  Oxacillin MIC: >256 µg/mL
MRSA; MSSA 1003, with 12.5 μg/ml of compound
  Oxacillin MIC: <0.5 µg/mL
MRSA; MSSA 1003, with 25 μg/ml of compound
  Oxacillin MIC: <0.5 µg/mL
MRSA; MSSA 1003, with 50 μg/ml of compound
  Oxacillin MIC: <0.5 µg/mL
MRSA; MSSA 1010, with 12.5 μg/ml of compound
  Oxacillin MIC: <0.5 µg/mL
MRSA; MSSA 1010, with 25 μg/ml of compound
  Oxacillin MIC: <0.5 µg/mL
MRSA; MSSA 1010, with 50 μg/ml of compound
  Oxacillin MIC: <0.5 µg/mL
MRSA; MSSA 1032, with 12.5 μg/ml of compound
  Oxacillin MIC: <0.5 µg/mL
MRSA; MSSA 1032, with 25 μg/ml of compound
  Oxacillin MIC: <0.5 µg/mL
MRSA; MSSA 1032, with 50 μg/ml of compound
  Oxacillin MIC: <0.5 µg/mL
MRSA; RN4220, with 12.5 μg/ml of compound
  Oxacillin MIC: <0.5 µg/mL
MRSA; RN4220, with 25 μg/ml of compound
  Oxacillin MIC: <0.5 µg/mL
MRSA; RN4220, with 50 μg/ml of compound
  Oxacillin MIC: <0.5 µg/mL

## catechin gallate
[1]
  effect of the combination use with oxacillin by FIC values: most potent
[1]; MRSA COL
  FIC value: <0.25
[1]; MRSA Strain No. 5
  FIC value: 0.064
